The record followed here is patent US9920010B2, “CXCR7 receptor modulators” (IDORSIA PHARMACEUTICALS LTD, priority 2013, dated 2018).

The term EC50 denotes the concentration that produces a half-maximal response. Higher therefore signals a need for much substance.

This experiment deals with T1, CXCR7 (Homo sapiens, UniProt P25106).
T1 construct: host or cells: CHO-K1 (PathHunter CHO-K1 CXCR7 b-arrestin cell line, stably transfected)
Description: PathHunter CHO-K1 CXCR7 b-arrestin recruitment assay (CXCR7 agonistic activity). The experiment is classed as cell-based. To be noted: PathHunter CHO-K1 CXCR7 b-arrestin cell line. The method in brief: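 Stable CHO-K1 line with C-terminally ProLink-tagged CXCR7 and β-arrestin 2–EA fusion; β-arrestin recruitment restores β-gal activity, read by chemiluminescence after 1 h RT detection. Cells seeded 24 h, starved in OPTIMEM 3–4 h, exposed to compounds 90 min at 37 °C in HBSS/HEPES/BSA. Geometric-mean EC50 from repeated measurements.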
In general terms: Recruitment of arrestin is a read-out of receptor activation apart from second messengers.

T1 sequence (P25106 whole entry): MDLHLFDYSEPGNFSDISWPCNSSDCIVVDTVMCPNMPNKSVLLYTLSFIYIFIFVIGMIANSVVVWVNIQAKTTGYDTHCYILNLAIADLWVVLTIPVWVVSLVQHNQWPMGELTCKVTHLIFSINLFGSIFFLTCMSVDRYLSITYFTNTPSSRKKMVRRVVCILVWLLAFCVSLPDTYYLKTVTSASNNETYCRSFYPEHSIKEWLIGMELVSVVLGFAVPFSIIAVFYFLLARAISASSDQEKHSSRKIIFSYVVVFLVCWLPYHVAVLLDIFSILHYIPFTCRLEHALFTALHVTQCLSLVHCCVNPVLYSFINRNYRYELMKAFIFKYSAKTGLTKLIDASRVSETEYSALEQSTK
T1 sequence (P32121 whole entry partner): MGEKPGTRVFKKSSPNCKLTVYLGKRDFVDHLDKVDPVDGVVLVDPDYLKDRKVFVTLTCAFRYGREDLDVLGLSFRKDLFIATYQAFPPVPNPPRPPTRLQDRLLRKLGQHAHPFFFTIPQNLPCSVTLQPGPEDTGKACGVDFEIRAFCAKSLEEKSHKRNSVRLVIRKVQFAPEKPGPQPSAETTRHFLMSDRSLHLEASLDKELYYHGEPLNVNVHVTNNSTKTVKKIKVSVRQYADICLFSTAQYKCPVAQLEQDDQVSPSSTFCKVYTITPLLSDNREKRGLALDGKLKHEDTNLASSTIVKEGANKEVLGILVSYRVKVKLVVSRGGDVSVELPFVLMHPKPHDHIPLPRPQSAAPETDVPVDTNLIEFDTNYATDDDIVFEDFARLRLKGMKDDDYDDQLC

With `CN(C)CCN(Cc1ncccc1Br)C(=O)CNc1cccc2c1CN(CC1CC1)CC2` [compound 486, N-(3-Bromo-pyridin-2-ylmethyl)-2-(2-cyclopropylmethyl-1,2,3,4-tetrahydro-isoquinolin-8-ylamino)-N-(2-dimethylamino-ethyl)-acetamide], the EC50 was 5 nM.
For `COc1ccc2c(c1NCC(=O)N(CCN(C)C)Cc1ccccc1C(F)(F)F)CCN(CC1CC1)C2` [Example 89, 2-(2-Cyclopropylmethyl-6-methoxy-1,2,3,4-tetrahydro-isoquinolin-5-ylamino)-N-(2-dimethylamino-ethyl)-N-(2-trifluoromethyl-benzyl)-acetamide] the value was 8 nM.
As for `C=CCN(C)CCN(Cc1ccccc1C(F)(F)F)C(=O)CNc1cccc2c1CCN(CC1CC1)C2` [Example 245, N-[2-(Allyl-methyl-amino)-ethyl]-2-(2-cyclopropylmethyl-1,2,3,4-tetrahydro-isoquinolin-5-ylamino)-N-(2-trifluoromethyl-benzyl)-acetamide], the figure is 3 nM; as for `CCN1CCc2cccc(NCC(=O)N(CCc3ccccc3C(F)(F)F)CCN(C)C)c2C1` [compound 538], 155 nM; as for `CN(C)CCN(Cc1ccccc1)C(=O)CNc1cccc2c1CCN(CC1CCCCC1)C2` [compound 124], 52 nM.
As for `CCN1CCc2c(/C=C/C(=O)N(CCN(C)C)Cc3ccccc3Cl)cccc2C1` [compound 145, (E)-N-(2-Chloro-benzyl)-N-(2-dimethylamino-ethyl)-3-(2-ethyl-1,2,3,4-tetrahydro-isoquinolin-5-yl)-acrylamide], the figure is 8 nM; as for `CS(=O)(=O)NCCN(Cc1ccccc1C(F)(F)F)C(=O)CNc1cccc2c1CCN(CC1CC1)C2` [Example 230, 2-(2-Cyclopropylmethyl-1,2,3,4-tetrahydro-isoquinolin-5-ylamino)-N-(2-methanesulfonylamino-ethyl)-N-(2-trifluoromethyl-benzyl)-acetamide], 81 nM; as for `CCC(=O)N1CCc2c(cccc2NCC(=O)N(CCN(C)C)Cc2ccccc2Cl)C1` [Example 20, N-(2-Chloro-benzyl)-N-(2-dimethylamino-ethyl)-2-(2-propionyl-1,2,3,4-tetrahydro-isoquinolin-5-ylamino)-acetamide], 11 nM.
In the case of `CN(CCN(Cc1ccccc1C(F)(F)F)C(=O)CNc1cccc2c1CCN(CC1CC1)C2)C1CCC1` [Example 447, N-[2-(Cyclobutyl-methyl-amino)-ethyl]-2-(2-cyclopropylmethyl-1,2,3,4-tetrahydro-isoquinolin-5-ylamino)-N-(2-trifluoromethyl-benzyl)-acetamide], the EC50 was 1 nM.
For the compound `CCn1ccc(C(C)N(Cc2ccccc2C(F)(F)F)C(=O)CNc2cccc3c2CCN(CC2CC2)C3)n1` (racemic) [Example 80, rac-2-(2-Cyclopropylmethyl-1,2,3,4-tetrahydro-isoquinolin-5-ylamino)-N-[1-(1-ethyl-1H-pyrazol-3-yl)-ethyl]-N-(2-trifluoromethyl-benzyl)-acetamide], a half-maximal effect (EC50) was put at 47 nM.
The compound `CN(C)CCN(Cc1ccccc1C(F)(F)F)C(=O)COc1cccc2c1CCN(CC1CC1)C2` [compound 174, 2-(2-Cyclopropylmethyl-1,2,3,4-tetrahydro-isoquinolin-5-yloxy)-N-(2-dimethylamino-ethyl)-N-(2-trifluoromethyl-benzyl)-acetamide] had an EC50 of 0.8 nM. Against the preceding compound, the EC50 is about 59-fold lower.
Regarding `CNCCN(Cc1ncccc1C(F)(F)F)C(=O)CNc1cccc2c1CCN(C(=O)C1CC1)C2` [compound 410, 2-(2-Cyclopropanecarbonyl-1,2,3,4-tetrahydro-isoquinolin-5-ylamino)-N-(2-methylamino-ethyl)-N-(3-trifluoromethyl-pyridin-2-ylmethyl)-acetamide], the EC50 was 5 nM.
For `CCN1CCc2c(cccc2OCC(=O)N(CCN(C)C)Cc2ccccc2C(F)(F)F)C1` [compound 173, N-(2-Dimethylamino-ethyl)-2-(2-ethyl-1,2,3,4-tetrahydro-isoquinolin-5-yloxy)-N-(2-trifluoromethyl-benzyl)-acetamide] the value was 5 nM; for `CC(C)C(C)N1CCc2c(cccc2NCC(=O)N(CCN(C)C)Cc2ccccc2C(F)(F)F)C1` (racemic) [Example 355, rac-N-(2-Dimethylamino-ethyl)-2-[2-(1,2-dimethyl-propyl)-1,2,3,4-tetrahydro-isoquinolin-5-ylamino]-N-(2-trifluoromethyl-benzyl)-acetamide], 10 nM; for `CC(C)(C)OC(=O)N1CCC(N(Cc2ccccc2C(F)(F)F)C(=O)CNc2cccc3c2CCN(CC2CC2)C3)CC1` [Example 252, 4-[[2-(2-Cyclopropylmethyl-1,2,3,4-tetrahydro-isoquinolin-5-ylamino)-acetyl]-(2-trifluoromethyl-benzyl)-amino]-piperidine-1-carboxylic acid tert-butyl ester], 426 nM.
For `CN(C)CCN(Cc1ccccc1)C(=O)CNc1cccc2c1CCN(CC(F)(F)F)C2` [Example 85, N-Benzyl-N-(2-dimethylamino-ethyl)-2-[2-(2,2,2-trifluoro-ethyl)-1,2,3,4-tetrahydro-isoquinolin-5-ylamino]-acetamide] the value was 187 nM.
As to `CN(C)CCN(Cc1ccccc1)C(=O)CNc1cccc2c1CCN(C(=O)OC(C)(C)C)C2` [Example 8, 5-({[Benzyl-(2-dimethylamino-ethyl)-carbamoyl]-methyl}-amino)-3,4-dihydro-1H-isoquinoline-2-carboxylic acid tert-butyl ester], the EC50 worked out at 230 nM.
For `CN(C)CCN(Cc1ccccc1C(F)(F)F)C(=O)CNc1cccc2c1CCN(C(=O)[C@H]1C[C@H]1F)C2` (single isomer, unassigned) [Example 363a, N-(2-Dimethylamino-ethyl)-2-[2-((1R*,2R*)-2-fluoro-cyclopropanecarbonyl)-1,2,3,4-tetrahydro-isoquinolin-5-ylamino]-N-(2-trifluoromethyl-benzyl)-acetamide] the value was 6 nM; for `CN1CCCC(N(Cc2ccccc2C(F)(F)F)C(=O)CNc2cccc3c2CCN(CC2CC2)C3)C1` (racemic) [compound 136], 1 nM.
With `CN(C)CCN(Cc1ccccc1C(F)(F)F)C(=O)CNc1cccc2c1CCN(C1CCOC1)C2` (racemic) [Example 351, rac-N-(2-Dimethylamino-ethyl)-2-[2-(tetrahydro-furan-3-yl)-1,2,3,4-tetrahydro-isoquinolin-5-ylamino]-N-(2-trifluoromethyl-benzyl)-acetamide], the EC50 was 34 nM. This EC50 is about 34-fold higher than that of the compound before.
Consider `CC(O)CN(Cc1ccccc1C(F)(F)F)C(=O)CNc1cccc2c1CCN(CC1CC1)C2` (racemic) [Example 240, rac-2-(2-Cyclopropylmethyl-1,2,3,4-tetrahydro-isoquinolin-5-ylamino)-N-(2-hydroxy-propyl)-N-(2-trifluoromethyl-benzyl)-acetamide], for which a half-maximal response (EC50) required 15 nM. This EC50 lies about 2.3-fold lower than the previous one.
The compound `CN(C)CCN(CCc1cccc(C(F)(F)F)c1)C(=O)CNc1cccc2c1CCN(CC1CC1)C2` [Example 55, 2-(2-Cyclopropylmethyl-1,2,3,4-tetrahydro-isoquinolin-5-ylamino)-N-(2-dimethylamino-ethyl)-N-[2-(3-trifluoromethyl-phenyl)-ethyl]-acetamide] showed an EC50 of 43 nM. Against the preceding compound, the EC50 is about 2.9-fold higher.
